Columns and labels:
[1] = tested on: CCl4-induced liver fibrosis; assay: CCl4-induced liver fibrosis model; format: in vivo, Male Sprague-Dawley rats; settings: rat, CCl4 i.p.
Text: Carbon tetrachloride (CCl4) induces liver fibrosis when administered intraperitoneally (Bulbena O, Culat J, Bravo M L., Inflammation 1997 October; 21(5):475-88). Compounds of the invention can be evaluated for their ability to prevent the CCl4-induced formation of fibrotic tissue. Male Sprague-Dawley rats, 7 weeks old, weight approx. 300 g from Charles River/Iffa-Crédo, St-Germain/l'Arbresle, France. The study involved the following groups of 8 animals each, as indicated below. Group 1: “Sham” animals received CCl4 vehicle (i.p.) and once daily, the vehicle of test substance (s.c.) Group 2: Positive control group received CCl4 (i.p.), and once daily, the vehicle of the test substance (s.c.) Group 3: Experimental group received CCl4 (i.p.), and once daily, 2 mg/kg s.c. of the compound of Example 13. Group 4: Experimental group received CCl4 (i.p.), and once daily, 10 mg/kg s.c. of the compound of Example 13. Group 5: Experimental group received CCl4 (i.p.) and once daily, 20 mg/kg s.c. of the compound of Example 13. CCl4 (Prolabo) in olive oil was administered every 3 days for three weeks by intraperitoneal injection (0,25 ml CCl4/kg body weight, diluted in oil 1:1 vol:vol for a total volume of 0.5 ml/kg). Animals were weighed daily. If body weight decreased by more than 10% of the initial weight, the animal was excluded from the study. Vehicles and compound were used as follows: • CCl4 was administered in olive oil (prolabo) at a 1:1 dilution; • The compound of Example 13 was suspended in 0.25% Tween-80 and 0.25% carboxymethylcellulose in sterile 0.9% NaCl. The solution was kept at 4° C. throughout the experiment and used each day to prepare the suspensions. The compound of Example 13 was administered daily by subcutaneous (s.c.) injection at a volume of administration of 5 ml/kg. Groups 1 and 2 were dosed s.c. with 5 ml/kg of vehicle. Freshly prepared solutions were used on each day of the experiment. […] Plasma aspartate amino transferase (ASAT) and alanine amino transferase (ALAT) levels were measured in order to assess liver necrosis. […]

92 kDa gelatinase (MMP9) = 92 kDa gelatinase (MMP9) (Homo sapiens, UniProt P14780); assay: MMP9 enzyme inhibition assay (fluorogenic peptide substrate McaPLGLDpaAR); format: biochemical; settings: recombinant human 92 kDa gelatinase, 37° C., 2 hours
Procedure: (§1) Compounds were tested for inhibitory activity against 92 kDa gelatinase (MMP9) in an assay using a coumarin-labelled peptide substrate, (7-methoxycoumarin-4-yl)acetyl-Pro-Leu-Gly-Leu-(3-[2,4-dinitrophenyl]-L-2,3-diaminopropionyl)-Ala-Arg-NH2 (McaPLGLDpaAR) (Knight et al, FEBS Lett. 1992; 263-266).
(§2) Stock solutions were made up as follows: • Assay Buffer: 100 mM Tris-HCl pH 7.6 containing 100 mM NaCl, 10 mM CaCl2, and 0.05% Brij 35 • Substrate: 0.4 mM McaPLGLDpaAR (from Bachem) (0.437 mg/ml) stock solution in 100% DMSO (stored at −20° C.). Dilute to 8 μM in assay buffer. • Enzyme: Recombinant human 92 kDa gelatinase (MMP-9; APMA (4-aminophenyl • mercuric acetate)—activated if necessary) appropriately diluted in assay buffer.
(§3) Test Compounds were prepared initially as 10 mM compound solution in 100% DMSO, diluted to 1 mM in 100% DMSO, then serially diluted 3-fold in 100% DMSO across columns 1-10 of a 96-well microtitre plate Assay concentration range, 100 μM (column 1) to 5.1 nM (column 10)
(§4) The assay was performed in a total volume of 100 μl per well in 96-well microtitre plates. Activated enzyme (20 μl) was added to the wells followed by 20 μl of assay buffer. Appropriate concentrations of test compounds dissolved in 10 μl of DMSO were then added followed by 50 μl of McaPLGLDpaAR (8 μM, prepared by dilution of DMSO stock in assay buffer). For each assay ten concentrations of test compound were examined in duplicate. Control wells lack either enzyme or test compound. The reactions were incubated at 37° C. for 2 hours. The fluorescence at 405 nm was measured immediately with an SLT Fluostar fluorometer (SLT Labinstruments GmbH, Grödig, Austria) using 320 nm excitation, without stopping the reaction.
(§5) The effect of the test compound was determined from the dose response curve generated by the 10 duplicate concentrations of inhibitor. The IC50 (the concentration of compound required to give a 50% decrease in enzyme activity) was obtained by fitting data to the equation, Y=a+((b−a)/(1+(c/X)^d)). (Y=inhibition achieved for a particular dose; X=the dose in nM; a=minimum y or zero % inhibition; b=maximum y or 100% inhibition; c=is the IC50; d=is the slope). The result was rounded to one significant figure.

collagenase (MMP1) = target: T1, collagenase (MMP1) (Homo sapiens, UniProt P03956); assay: MMP1 enzyme inhibition assay (fluorogenic peptide substrate McaPLGLDpaAR); format: biochemical; settings: protocol as for MMP9 assay
T1 sequence (P03956 100-469): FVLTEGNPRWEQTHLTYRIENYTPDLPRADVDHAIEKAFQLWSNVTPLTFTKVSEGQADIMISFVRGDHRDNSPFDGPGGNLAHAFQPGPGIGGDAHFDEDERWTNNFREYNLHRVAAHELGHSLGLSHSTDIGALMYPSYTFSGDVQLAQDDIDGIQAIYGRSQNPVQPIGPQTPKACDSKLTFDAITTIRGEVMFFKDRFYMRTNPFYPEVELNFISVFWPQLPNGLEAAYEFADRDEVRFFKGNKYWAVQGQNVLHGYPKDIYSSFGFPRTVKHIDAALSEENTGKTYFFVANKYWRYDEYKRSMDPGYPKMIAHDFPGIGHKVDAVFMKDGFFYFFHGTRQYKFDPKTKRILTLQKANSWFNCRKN
Procedure: as §2, §3, §4, §5
as §1, with “• Compounds” for “Compounds”, “collagenase (MMP1)” for “92 kDa gelatinase (MMP9)”, “263-266). The protocol for this assay was as described for the MMP9 assay above.” for “263-266).”

[2] = compound s.c. once daily 2, 10, 20 mg/kg for 21 days, compared to vehicle (FIG. 1)

Chain of 92 kDa gelatinase (MMP9) (P14780 107-707 limits assumed): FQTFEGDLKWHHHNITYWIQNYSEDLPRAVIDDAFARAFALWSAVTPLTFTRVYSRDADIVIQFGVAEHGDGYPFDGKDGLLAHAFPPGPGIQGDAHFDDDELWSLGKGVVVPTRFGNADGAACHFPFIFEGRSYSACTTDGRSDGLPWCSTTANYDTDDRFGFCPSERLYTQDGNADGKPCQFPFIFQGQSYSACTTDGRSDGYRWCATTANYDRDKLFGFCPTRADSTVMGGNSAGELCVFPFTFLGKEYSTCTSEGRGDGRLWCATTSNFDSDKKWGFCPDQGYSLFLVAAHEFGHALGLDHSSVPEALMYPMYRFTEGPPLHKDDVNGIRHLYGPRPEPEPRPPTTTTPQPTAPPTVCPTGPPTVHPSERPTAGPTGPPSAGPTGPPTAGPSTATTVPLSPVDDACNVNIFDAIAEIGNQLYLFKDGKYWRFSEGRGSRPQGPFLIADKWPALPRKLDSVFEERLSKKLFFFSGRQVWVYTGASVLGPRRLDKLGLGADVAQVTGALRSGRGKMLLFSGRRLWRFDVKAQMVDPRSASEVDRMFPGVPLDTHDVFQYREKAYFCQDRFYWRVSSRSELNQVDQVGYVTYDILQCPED

IC50 (92 kDa gelatinase (MMP9)): 100 to 1000 nM | IC50 (collagenase (MMP1)): 100 to 1000 nM
Structure (SMILES): CC(C)C[C@@H](C(=O)N[C@H](c1noc(-c2cccs2)n1)C(C)(C)C)[C@H](O)C(=O)NO [Example 13, 2S-Hydroxy-3R-[1S-(5-thiophen-2-yl-[1,2,4]oxadiazol-3-yl)-2,2-dimethyl-propylcarbamoyl]-5-methyl Hexanohydroxamic Acid]
Plasma alanine amino transferase (ALAT) level [1, 2]: clearly decreases | Plasma aspartate amino transferase (ASAT) level [1, 2]: clearly decreases | Effect on the liver ([1]; compound s.c. once daily, conclusion from ASAT and ALAT levels): protective effect on the liver

From patent publication US20100035943A1, “Oxa-and thiadiazoles and their use as metalloproteinase inhibitors” (VERNALIS (OXFORD) LTD, priority 2002, published 2010)
